{"source": "PubChem BioAssay AID1996", "data": [{"settings": "buffer; pH 7.4; 200.0 µM", "units": {"solubility kinetic": "µg/mL"}, "values": [{"smiles": "CC(=O)c1cccc(NC(=O)N2CCOCC2)c1", "solubility kinetic": "> 37.2"}, {"smiles": "Cc1ccccc1N1CCN(CCC(=O)Nc2ccc(F)cc2)CC1", "solubility kinetic": 39.9}, {"smiles": "O=c1c([N+](=O)[O-])cccn1Cc1ccccc1Cl", "solubility kinetic": "> 39.7"}, {"smiles": "COc1ccccc1N1CCN(C(=O)c2c(C)noc2C)CC1", "solubility kinetic": "> 47.3"}, {"smiles": "CCC(=O)Nc1cc(C(F)(F)F)ccc1N1CCCC1", "solubility kinetic": 34}, {"smiles": "O=C1CC(C(=O)N2CCc3ccccc32)CN1c1ccccc1", "note": "(stereo not given)", "solubility kinetic": 9.2}, {"smiles": "O=C(COC(=O)COc1cccc(Br)c1)NCc1ccc2c(c1)OCO2", "solubility kinetic": 32.6}, {"smiles": "Cc1cnc(NC(=O)c2ccc(-c3ccc([N+](=O)[O-])cc3)o2)s1", "solubility kinetic": 1.9}, {"smiles": "CC(C)COc1ccc(C(=O)N2C(=O)c3ccc(N)cc3C2=O)cc1", "solubility kinetic": 1.8}, {"smiles": "[O-]/[N+](=C\\c1ccco1)c1ccc(Cl)cc1", "solubility kinetic": 32.5}, {"smiles": "O=C(NCc1ccccc1)/C(=C/c1ccco1)NC(=O)c1ccco1", "solubility kinetic": "> 50.5"}, {"smiles": "Cc1cc(C)c2c(N)c(C(=O)Nc3ccc(F)cc3)sc2n1", "solubility kinetic": 1.1}, {"smiles": "CCCC(=O)NCc1nc2ccccc2n1CC(=O)c1ccccc1", "solubility kinetic": "> 50.3"}, {"smiles": "N#Cc1c(Cl)nsc1NCCN1CCOCC1", "solubility kinetic": "> 40.9"}, {"smiles": "Cc1cccn2c(=O)cc(COC(=O)C(C)Oc3ccccc3)nc12", "note": "(stereo not given)", "solubility kinetic": 46.8}, {"smiles": "OC(CN1CCC(c2c[nH]c3ccccc23)CC1)C(F)(F)F", "note": "(stereo not given)", "solubility kinetic": "> 46.9"}, {"smiles": "O=C(O)CCn1c(-c2ccccn2)nc2ccccc21", "solubility kinetic": "> 40.1"}, {"smiles": "CCOc1ccc(C(=O)Oc2ccc(NC(C)=O)cc2)cc1", "solubility kinetic": "< 0.6"}, {"smiles": "CSc1ccccc1C(=O)Nc1nc2ccccc2[nH]1", "solubility kinetic": 3.1}, {"smiles": "CN(c1ccc(C(=O)NC2CCCC2)cc1)S(=O)(=O)c1ccccc1", "solubility kinetic": 48.9}, {"smiles": "C=CCn1c(SCC(=O)N(C)CC(=O)Nc2ccc(C)cc2)nnc1-c1ccncc1", "solubility kinetic": "> 65.5"}, {"smiles": "O=C1CSC(=Nc2cccc(Cl)c2Cl)N1Cc1cccnc1", "solubility kinetic": 30.8}, {"smiles": "CC(=O)c1ccc(S(=O)(=O)N2CCN(C(C)=O)CC2)cc1", "solubility kinetic": "> 46.6"}, {"smiles": "N#C/C(=C\\Nc1ccccn1)S(=O)(=O)c1ccc(Cl)cc1", "solubility kinetic": 0.4}, {"smiles": "O=c1cc(/N=C/c2coc3cc(Br)ccc3c2=O)[nH]c(=S)[nH]1", "solubility kinetic": 3}, {"smiles": "O=C(O)CCc1ccc(S(=O)(=O)Nc2ccccc2N2CCCCC2)cc1", "solubility kinetic": "> 58.3"}, {"smiles": "CCc1c(C)nc(SC/C=C/c2ccccc2)[nH]c1=O", "solubility kinetic": 1.4}, {"smiles": "Cc1ccc(S(=O)(=O)Nc2ccsc2C#N)cc1", "solubility kinetic": "> 41.8"}, {"smiles": "CCOC(=O)N1CCN(Cc2nc(-c3cccs3)no2)CC1", "solubility kinetic": 44}, {"smiles": "O=C(O)CNC(=O)/C=C/c1ccc(Cl)cc1Cl", "solubility kinetic": 37.6}, {"smiles": "CN(C)CCNC(=S)NC1CCCCC1", "solubility kinetic": 32.7}, {"smiles": "Cc1cccc(NC(=O)C(=O)NCc2ccc3c(c2)OCO3)c1C", "solubility kinetic": 2}, {"smiles": "Cc1ccccc1N1CCN(Cc2cc3c(cc2[N+](=O)[O-])OCO3)CC1", "solubility kinetic": 3.5}, {"smiles": "Cc1cc2nc(=O)c(/C=C3\\C=Nc4ccccc43)c(N)n2o1", "solubility kinetic": "< 0.2"}, {"smiles": "O=C(c1ccco1)N1CCN(CCOc2ccccc2)CC1", "solubility kinetic": 42.7}, {"smiles": "COc1ccc(Cl)cc1NC(=O)CN(C)C(=O)c1cccc2cccnc12", "solubility kinetic": 48.5}, {"smiles": "COc1cccc(Nc2nc(-c3ccccc3)nc3ccccc23)c1", "solubility kinetic": 3.2}, {"smiles": "CC(=O)C1=C(O)C(=O)N(c2ccccn2)C1c1cccc(F)c1", "note": "(stereo not given)", "solubility kinetic": "> 46.8"}, {"smiles": "O=C(CNC(=O)C1CCCCC1)OCC(=O)c1ccc(F)cc1", "solubility kinetic": "> 48.2"}, {"smiles": "COc1ccc(-c2csc(N(C)C(=O)c3ccco3)n2)cc1", "solubility kinetic": "< 0.3"}, {"smiles": "O=C(CNC(=O)c1cccnc1)N/N=C/c1ccc(O)cc1O", "solubility kinetic": "> 47.1"}, {"smiles": "Cc1ccccc1CSc1[nH]c(=O)ncc1C", "solubility kinetic": "> 36.9"}, {"smiles": "O=C(NCc1ccccc1)C(=O)Nc1nccs1", "solubility kinetic": 3.1}, {"smiles": "Cc1csc2c(=O)n(CCO)c(=O)[nH]c12", "solubility kinetic": "> 33.9"}, {"smiles": "O=S(=O)(c1ccccc1)N1CN(c2ccc(F)cc2F)c2nc3ccccc3nc21", "solubility kinetic": 3.8}, {"smiles": "O=C(Nc1ccc2ccccc2c1)c1cccc(F)c1", "solubility kinetic": 1.3}, {"smiles": "CC(=O)c1cccc(OCC(=O)N(C)CC(=O)NCc2ccco2)c1", "solubility kinetic": "> 51.7"}, {"smiles": "Cc1cccc(OCCCCCN2CCOCC2)c1", "solubility kinetic": 29.9}, {"smiles": "Cc1ccc(NC(=O)C2CC(O)CN2C(=O)OCc2ccccc2)cc1C", "note": "(stereo not given)", "solubility kinetic": 48.8}, {"smiles": "Cc1ccc2c(c1)C1(OCCCO1)C(=O)N2CC#N", "solubility kinetic": 37.6}, {"smiles": "O=C(COC(=O)c1cccc(O)c1)NC(=O)Cc1ccccc1", "solubility kinetic": "> 47"}, {"smiles": "Cc1cc2ccccn2c1C(=O)c1ccccc1F", "solubility kinetic": 12.5}, {"smiles": "N#Cc1cc([N+](=O)[O-])ccc1N1CCN(c2ccccc2O)CC1", "solubility kinetic": 2.4}, {"smiles": "O=C(NCCCCc1ccccc1)C1CCCC1", "solubility kinetic": 33.1}, {"smiles": "CN(Cc1ccccc1)S(=O)(=O)c1cc2c3c(c1)CCN3C(=O)CC2", "solubility kinetic": 3.6}, {"smiles": "CC(C)Cn1c(=O)[nH]c(=O)c2c(C(F)(F)F)cc(-c3ccccc3)nc21", "solubility kinetic": "< 0.3"}, {"smiles": "COc1cccc(OCC(=O)N(C)Cc2nc(-c3ccccc3)no2)c1", "solubility kinetic": 36.6}, {"smiles": "CC1SCC(=O)N(CC(=O)NC2CCCCC2)C1=O", "note": "(stereo not given)", "solubility kinetic": 37.9}, {"smiles": "O=C1N=c2ccccc2=C1c1sc(=O)[nH]c1O", "solubility kinetic": "> 36.9"}, {"smiles": "CCOc1ccc(CNc2ccc3c(c2)ncn3C(C)(C)C)cc1", "solubility kinetic": 46.3}, {"smiles": "COC(=O)CN1C(=O)COc2ccc(S(=O)(=O)NCc3ccccc3)cc21", "solubility kinetic": 58.3}, {"smiles": "COc1ccccc1-n1cccc1C=O", "solubility kinetic": "> 30.2"}, {"smiles": "Cc1cc(NC(=O)CSc2nc3c(C)cccc3cc2C)no1", "solubility kinetic": "< 0.2"}, {"smiles": "N#Cc1ccccc1NC(=O)CN1CCN(c2ccccn2)CC1", "solubility kinetic": "> 48.2"}, {"smiles": "Cn1c(C(=O)N[C@@H](Cc2ccccc2)C(=O)O)cc2cc(F)ccc21", "solubility kinetic": "> 51.1"}, {"smiles": "CCc1cccc(NS(=O)(=O)c2ccc3c(c2)n(C)c(=O)n3C)c1", "solubility kinetic": 3.4}, {"smiles": "Cc1cccnc1NC(=S)NC(=O)c1oc2ccccc2c1C", "solubility kinetic": 4.7}, {"smiles": "COc1ccc2[nH]c(C)c(C(=O)CN(C)CC3OCCO3)c2c1", "solubility kinetic": 45.9}, {"smiles": "COc1ccc(C2(O)C(=O)Nc3ccc(C)cc32)cc1", "note": "(stereo not given)", "solubility kinetic": "> 40.4"}, {"smiles": "CC1(C)Cc2ccccc2C(/C(C#N)=N/O)=N1", "solubility kinetic": "> 34.1"}, {"smiles": "O=C(CN1CCN(c2ccccc2F)CC1)NCc1ccccc1", "solubility kinetic": 40.8}, {"smiles": "O=C(C[n+]1ccccc1)Nc1ccc(Oc2ccccc2)cc1.[Cl-]", "solubility kinetic": "> 51.1"}, {"smiles": "O=C(COC(=O)c1ccc(Cl)nc1)Nc1ccccc1OC(F)F", "solubility kinetic": "> 53.5"}, {"smiles": "CCC(NC(=O)c1ccccc1Br)c1ccccc1", "note": "(stereo not given)", "solubility kinetic": "> 47.7"}, {"smiles": "Cc1oc(-c2cccc(C(F)(F)F)c2)nc1CN1CCC[C@H]1CO", "solubility kinetic": "> 51.1"}, {"smiles": "CC(C)CNC(=O)C(=O)NCC1OCCCN1S(=O)(=O)c1cccs1", "note": "(stereo not given)", "solubility kinetic": "> 58.4"}, {"smiles": "COc1ccccc1C(=O)NCCC(=O)NCC1CCCO1", "note": "(stereo not given)", "solubility kinetic": "> 46"}, {"smiles": "CCOC(=O)C1CCCN(c2c(NCCc3ccccc3)c(=O)c2=O)C1", "note": "(stereo not given)", "solubility kinetic": 25.5}, {"smiles": "O=C(NCCc1ccc(F)cc1)c1cccc(NC(=O)c2ccccc2)c1", "solubility kinetic": 6}, {"smiles": "Cc1ccc(S(=O)(=O)NC(=O)c2ccc(F)cc2)c(C)c1", "solubility kinetic": "> 46.1"}, {"smiles": "Cc1[nH]c(=O)c(C#N)cc1-c1csc(-c2ccccc2)n1", "solubility kinetic": 0.7}, {"smiles": "Fc1ccc(-c2csc(-c3ccncc3)n2)cc1", "solubility kinetic": 1.3}, {"smiles": "O=c1ccc(S(=O)(=O)N2CCCC2)c[nH]1", "solubility kinetic": "> 34.2"}, {"smiles": "COC(=O)COc1ccc(NC(=O)c2ccco2)cc1", "solubility kinetic": 39.1}, {"smiles": "CSCCC1NC(=S)N(Cc2ccccc2)C1=O", "note": "(stereo not given)", "solubility kinetic": "> 42.1"}]}]}
